Read-outs that look alike come from different tables or passages of the source.
System: gray mold fungus (Botrytis cinerea)
Assay: Cucumber leaf disk preventive test against gray mold fungus
Format: in vivo
Settings: for pest or weed control at 0.5 ppm / pest or weed control at 5 ppm: Botrytis cinerea, foliar, 96 h, read-out: preventive value (%)
Procedure: True leaf of cucumber is punched out with cork borer to 13 mm in diameter to prepare a leaf disk. In 24 well microwell plate that is dispensed with 1 ml 0.8% water agar, the leaf disk is placed such that the upper side of the leaf is in an upward direction. Thereto is added 20 micro liter a testing solution prepared by mixing a dimethyl sulfoxide solution of the present compound (racemate) and a dimethyl sulfoxide solution of isopyrazam, boscalid or penthiopyrad to a predetermined concentration to treat the leaf disk.
After confirming that the testing medical solution is dried, conidium of gray mold fungus (Botrytis cinerea) is suspended into potato dextrose broth (DIFCO) in a density of about 10^5 conidium/mL and is then subjected to a spray inoculation. After leaving to stand the leaf disk in a growth chamber set up at 15° C. for four days, an onset area on the leaf is measured and then calculated an onset area rate (hereinafter, referred to as an onset area rate of treated group).
The same operation is carried out with 20 micro liter water instead of 20 micro liter a testing medicine solution to calculate an onset area rate (hereinafter, referred to an onset area rate of non-treated group).
A preventive value is calculated from the above onset area rate of treated group and the onset area rate of non-treated group by the following equation: Preventive value(%)=100×(A−B)/A
A: an onset area rate of treated group
B: an onset area rate of non-treated group […]
For comparison, the same operations as described in Test Example 1 are carried out with the exception that the testing medicine solution is substituted with a predetermined concentration of each dimethyl sulfoxide solution of isopyrazam, boscalid or penthiopyrad, so as to calculate respective preventive values.

[1] = carboxamide compound alone, 0.5 ppm, cucumber leaf disk, 15° C., four days
[2] = carboxamide compound alone, 5.0 ppm, cucumber leaf disk, 15° C., four days

SMILES | preventive value (%) [1] [%] | preventive value (%) [2] [%] | pest or weed control at 0.5 ppm [1] [%] | pest or weed control at 5 ppm [2] [%] | further results
COC(=O)[C@@H](C)N(C(=O)Cc1ccccc1)c1c(C)cccc1C [benalaxyl-M] | 10 | 15 | – | – | –
O=C(Nc1ccccc1-c1ccc(Cl)cc1)c1cccnc1Cl [boscalid] | – | – | 49 | 56 | –
C[C@@H](NC(=O)C(C#N)C(C)(C)C)c1ccc(Cl)cc1Cl (stereo partly drawn) [diclocymet] | – | – | – | – | pest or weed control at 0.5 ppm: 10%; pest or weed control at 5 ppm: 15%
COc1ccc(C(=CC(=O)N2CCOCC2)c2ccc(Cl)cc2)cc1OC [dimethomorph] | – | – | 10 | 15 | –
CC1(C(=O)Nc2ccc(O)c(Cl)c2Cl)CCCCC1 [fenhexamid] | – | – | 20 | 57 | –
O=C(NCCc1ncc(C(F)(F)F)cc1Cl)c1ccccc1C(F)(F)F [fluopyram] | – | – | 35 | 45 | –
Cc1nn(C)c(Cl)c1C(=O)Nc1cccc2c1C(C)OC2(C)C (stereo not drawn) [furametpyr] | 15 | 20 | – | – | –
CC(C)C1C2CCC1c1c(NC(=O)c3cn(C)nc3C(F)F)cccc12 (stereo not drawn) [isopyrazam] | 20 | 40 | – | – | –
N#Cc1ccccc1NC(=O)c1snc(Cl)c1Cl [isotianil] | 10 | 25 | – | – | –
COCC(=O)N(c1c(C)cccc1C)N1CCOC1=O [oxadixyl] | – | – | – | – | pest or weed control at 0.5 ppm: 10%; pest or weed control at 5 ppm: 15%
O=C(Nc1ccccc1)N(Cc1ccc(Cl)cc1)C1CCCC1 [pencycuron] | – | – | 10 | 15 | –
CC(C)CC(C)c1sccc1NC(=O)c1cn(C)nc1C(F)(F)F (stereo not drawn) [penthiopyrad] | – | – | 39 | 45 | –
